According to patent publication US20110015137A1, “RECA INHIBITORS AND THEIR USES AS MICROBIAL INHIBITORS OR POTENTIATORS OF ANTIBIOTIC ACTIVITY” (Trustees of Boston University, priority 2007, published 2011):
Where a name gives a salt, the structure may show the parent alone.

Legend:
E. coli RecA protein = biological target: T1, E. coli RecA protein (Escherichia coli, UniProt P0A7G6); experiment: High throughput RecA-luciferase assay (ATP remaining after RecA ATPase reaction); type: biochemical; details: compounds identified from the screen of more than 22,000 compounds
T1 construct: purchased Epicentre, Madison, Wis
Description: RecA is a DNA-dependent ATPase (i.e., it catalyzes the reaction adenosine triphosphate [ATP]→adenosine diphosphate [ADP]). An assay was developed for RecA ATPase activity based on detection of the amount of ATP remaining in a reaction mixture following incubation of RecA protein, DNA, and ATP. In an exemplary assay, E. coli RecA protein is incubated in reaction buffer with DNA, ATP, and any test compound or compounds for a measured amount of time. The quantity of ATP remaining after the RecA reaction can be quantitated using a subsequent luciferase assay. The luciferase emits more light as more ATP is available. In some embodiments, the amount of ATP remaining can be compared to controls containing either a known inhibitor (full inhibition control) or no test compound (full activity control). In some embodiments, a positive control (having no DNA added to the well) and negative control (having DNA and no compounds) are run with each screen. Positive responses are based upon the percent reduction of activity of luciferase, with a high percentage representing increased RecA inhibition. Percent inhibition can be calculated according to the following equation: […]
An in vitro RecA-luciferase assay was used to screen for RecA inhibitors. RecA is a DNA-dependent ATPase (i.e., it catalyzes the reaction adenosine triphosphate [ATP]→adenosine diphosphate [ADP]). An assay was developed for RecA ATPase activity based on detection of the amount of ATP remaining in a reaction mixture following incubation of RecA protein, DNA, and ATP. […] The quantity of ATP remaining after the RecA reaction was measured by a subsequent luciferase assay. The luciferase emit more light as more ATP was available.
For high throughput screening, the following reagents were added to each well of a 384 well plate:
The reagents were mixed and incubate at room temperature for about 5 minutes. Then, 5.0 μL of ATP mix, as indicated below, were added to each well.
The mix was incubated at room temperature for about 90-120 minutes. 12.5 μL of Kinase-Glo® plus (Promega) were added to each well and incubated at room temperature for about 10 minutes or more. The luminescence of the reaction was measured.
A positive control (having no DNA added to the well) and negative control (having DNA and no compounds) were run with each screen. Positive responses were based upon the percent reduction of activity of luciferase, with a high percentage representing increased RecA inhibition. Percent inhibition can be calculated according to the following equation: […]

S. aureus strain S3 = experiment: Cell growth assay, first assay (gentamycin potentiation); type: cell-based; details: gentamycin alone, sublethal concentration 0.3 μg/mL
Description: Cell Growth Assay. This assay measures the ability of cells to grow in the presence of a sublethal dose (i.e., a dose below the MIC) of an antibiotic agent (or test agent, or combination thereof). In general, cells are grown, typically to saturation, and are then diluted and inoculated onto rich medium and onto medium containing a sublethal dose of antibiotic agent. Plates are then grown overnight, and OD600 is measured after overnight growth, as compared with blank plate. If desired, a test agent can be added to the plate, either alone or in combination with the known antibiotic agent, and the ratio of OD600 in the presence of the test agent to OD600 in the absence of the test agent, can be determined. Additional ratios that can be useful as controls include, for example, OD600 in the presence vs. absence of antibiotic agent; OD600 in the absence of any agent vs. in the presence of both antibiotic agent and test agent; etc.
Actinomycin D Potentiates Gentamycin: In the first assay, S. aureus strain S3 was used in a cell growth assay as described in FIG. 4. The strain was grown in the presence and absence of gentamycin and actinomycin D. Various concentrations of gentamycin and actinomycin D were used. Specifically, 40 μL gentamycin stock (5 mg/mL) was first diluted in 360 μL H2O. Then, 200 μL of the diluted gentamycin solution was further mixed with 200 μL H2O. […]

T1 sequence (P0A7G6 2-353): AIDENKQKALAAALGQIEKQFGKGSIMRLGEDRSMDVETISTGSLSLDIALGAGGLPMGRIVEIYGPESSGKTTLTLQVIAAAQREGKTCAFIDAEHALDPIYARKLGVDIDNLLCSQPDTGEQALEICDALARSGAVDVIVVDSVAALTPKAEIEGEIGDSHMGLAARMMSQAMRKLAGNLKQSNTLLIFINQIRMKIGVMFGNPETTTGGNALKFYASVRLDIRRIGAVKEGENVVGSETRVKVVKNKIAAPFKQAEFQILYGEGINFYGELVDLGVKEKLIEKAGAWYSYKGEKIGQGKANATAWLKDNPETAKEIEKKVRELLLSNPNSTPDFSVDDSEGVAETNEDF

Compound | activity in the RecA-luciferase screen (in words) (E. coli RecA protein) | growth of S. aureus strain S3 (S. aureus strain S3)
C[n+]1c2cc(N)ccc2cc2ccc(N)cc21.[Cl-] [acriflavinium hydrochloride] | particularly active | –
Nc1c2ccccc2nc2ccccc12 [acrisorcin] | particularly active | –
Oc1c(Cl)cc(Cl)cc1Sc1cc(Cl)cc(Cl)c1O [bithionol] | particularly active | –
COc1cc2cc3c4cc(OC)c(OC)cc4cc[n+]3c(C)c2cc1OC.O.[Cl-] [coralyne chloride hydrate] | particularly active | –
COc1cc2cc3c4cc(OC)c(OC)cc4cc[n+]3c(C)c2cc1OC.[Cl-] [coralyne chloride] | particularly active | –
COc1cccc2c1C(=O)c1c(O)c3c(c(O)c1C2=O)C[C@@](O)(C(C)=O)C[C@@H]3O[C@H]1C[C@H](N)[C@H](O)[C@H](C)O1 [daunorubicin hydrochloride] | particularly active | –
Cc1cc(N)c2ccccc2[n+]1CCCCCCCCCC[n+]1c(C)cc(N)c2ccccc21 [dequalinium chloride] | particularly active | –
Cc1c2ccncc2c(C)c2c1[nH]c1ccccc12 [ellipticine] | particularly active | –
Oc1c(Cl)cc(Cl)c(Cl)c1Cc1c(O)c(Cl)cc(Cl)c1Cl [hexachlorophene] | particularly active | –
CC[n+]1c(-c2ccccc2)c2cc(N)ccc2c2ccc(N)cc21 [homidium bromide] | particularly active | –
Cl.Cl.O=C1c2c(O)ccc(O)c2C(=O)c2c(NCCNCCO)ccc(NCCNCCO)c21 [mitoxathrone hydrochloride] | particularly active | –
CC[N+](C)(CC)CCC[n+]1c(-c2ccccc2)c2cc(N)ccc2c2ccc(N)cc21.[I-].[I-] [propidium iodide] | particularly active | –
CCN(CC)CCCC(C)Nc1c2ccc(Cl)cc2nc2ccc(OC)cc12 (stereo not drawn) [quinacrine hydrochloride] | particularly active | –
doxorubicin hydrochloride | particularly active | –
gentamycin | – | grew equally well
